Experimental data from ChEMBL document CHEMBL1799932, “Antimalarial pyrido[1,2-a]benzimidazoles” (J Med Chem, 2011).

How the values were obtained:
Rattus norvegicus [1] = experiment: Drug excretion in fasted Sprague-Dawley rat urine assessed as 1-(2-Ethylaminoethylamino)-3-[4-(trifluoromethyl)phenyl]- pyrido[1,2-a]benzimidazole-4-carbonitrile level at 20 mg/kg, po after 48 hrs by LC-MS analysis; type: ADME, organism-based; set-up: dose 20 mg/kg, route oral; settings: in vivo
Rattus norvegicus [2] = experiment: Drug excretion in fasted Sprague-Dawley rat urine assessed as 1-(2-Diethylaminoethylamino)-3-[4-(trifluoromethyl)phenyl]-pyrido[1,2-a]benzimidazole-4-carbonitrile at 20 mg/kg, po after 48 hrs by LC-MS analysis; type: ADME, organism-based; set-up: dose 20 mg/kg, route oral; settings: in vivo
Rattus norvegicus [3] = experiment: Cmax in fasted Sprague-Dawley rat assessed as 1-(2-Ethylaminoethylamino)-3-[4-(trifluoromethyl)phenyl]- pyrido[1,2-a]benzimidazole-4-carbonitrile level at 20 mg/kg, po after 48 hrs by LC-MS analysis; type: ADME, organism-based; set-up: dose 20 mg/kg, route oral; settings: in vivo
Plasmodium berghei [4] = experiment: Antimalarial activity against GFP-transfected Plasmodium berghei strain ANKA infected in NMRI mouse assessed as increase in median survival time at 100 mg/kg/day, po administered for 4 days measured up to 30 days post infection (reference value: 5 to 7 days); type: functional
Rattus norvegicus [5] = experiment: AUC (0 to tlast) in fasted Sprague-Dawley rat assessed as 1-(2-Diethylaminoethylamino)-3-[4-(trifluoromethyl)phenyl]-pyrido[1,2-a]benzimidazole-4-carbonitrile at 5 mg/kg, iv after 48 hrs by LC-MS analysis; type: ADME, organism-based, Plasma; set-up: time < 48 hr, dose 5 mg/kg, route intravenous; settings: in vivo
Plasmodium berghei [6] = experiment: Antimalarial activity against GFP-transfected Plasmodium berghei strain ANKA infected in NMRI mouse assessed as reduction in parasitemia at 50 mg/kg, po administered as single dose measured on day 3 by FACS analysis; type: functional; set-up: scale not given: the % may be the effect or the level left
Plasmodium berghei [7] = experiment: Antimalarial activity against GFP-transfected Plasmodium berghei strain ANKA infected in NMRI mouse assessed as reduction in parasitemia at 100 mg/kg/day, po administered for 4 consecutive days measured 24 hrs after last treatment by FACS analysis relative to control; type: functional; set-up: scale not given: the % may be the effect or the level left
Rattus norvegicus [8] = experiment: Apparent volume of distribution in fasted Sprague-Dawley rat assessed as 1-(2-Diethylaminoethylamino)-3-[4-(trifluoromethyl)phenyl]-pyrido[1,2-a]benzimidazole-4-carbonitrile at 5 mg/kg, iv after 48 hrs by LC-MS analysis; type: ADME, organism-based; set-up: dose 5 mg/kg, route intravenous; settings: in vivo
Plasmodium berghei [9] = experiment: Antimalarial activity against GFP-transfected Plasmodium berghei strain ANKA infected in NMRI mouse assessed as reduction in parasitemia at 25 mg/kg, po administered as single dose measured on day 5 by FACS analysis; type: functional; set-up: scale not given: the % may be the effect or the level left
[10] = Metabolic stability in mouse liver microsomes assessed as degradation half life after 60 mins by LC-MS analysis; type: ADME, Microsome

Description for Plasmodium falciparum: Antimalarial activity against multidrug-resistant Plasmodium falciparum K1 infected in human red blood cells assessed as 3H-hypoxanthine incorporation after 48 hrs by liquid scintillation counting

With `CCN(CC)CCNc1cc(-c2ccc(C(F)(F)F)cc2)c(C#N)c2nc3ccccc3n12.Cl.Cl` the Activity (Rattus norvegicus [1]) was 0.05%, the Activity (Rattus norvegicus [2]) was 0.05% and the Cmax (Rattus norvegicus [3]) was 920 nM. For the same compound, the MSD (Plasmodium berghei [4]) was 16 days, the AUClast (Rattus norvegicus [5]) was 304 µM·min and the Activity (Plasmodium berghei [6]) was 29.76%. The Activity (Plasmodium berghei [7]) was 96.2%, the IC50 (Plasmodium falciparum) was 80 nM and the Vz (Rattus norvegicus [8]) was 18.9 L/kg. It also gave an Activity (Plasmodium berghei [9]) of 70.33% and a half-life [10] of 24.1 min.
